# Experimental data published in patent US20260250318A1, “COMPOSITIONS AND METHODS FOR CROSSING THE BLOOD BRAIN BARRIER” (VOYAGER THERAPEUTICS, INC., priority 2022, published 2026).
# Tests used:
# Conditions in all cases: synthetic library passage 3, intravenous, relative to wild-type AAV9
# brain [1] = assay: NGS fold enrichment of synthetic library (passage 3) in C57Bl/6 mice, first cross-species screen; assay type: in vivo
# Method: (§1) After creation of the synthetic library with the sub-selected variants, the synthetic library was screened (passage 3) in two NHPs (2-4 years of age) and two strains of mice, BALB/c (n=3, 6-8 weeks of age) and C57Bl/6 mice (n=3, 6-8 weeks of age), in a first cross-species evolution screen. The animals were injected intravenously with the synthetic library. After a period in vivo, (e.g., 28-days) RNA was extracted from nervous tissue, e.g., brain, spinal cord, and DRG of the NHPs and the brains of mice. Following RNA recovery and RT-PCR amplification, a systematic NGS enrichment analysis was performed, and the peptides comprised within the variants were identified and the capsid enrichment ratio for each variant compared to the wild-type AAV9 control was calculated (fold enrichment relative to wild-type AAV9) (Table 9). […] All animals were dosed intravenously at […] across the screen.
# [2] = system: brain, spinal cord, and DRG of the NHPs; assay: NGS fold enrichment of synthetic library (passage 3) in NHPs, first cross-species screen; assay type: in vivo, cynomolgus macaques (Macaca fascicularis)
# Method: as §1
# brain [3] = assay: NGS fold enrichment of synthetic library (passage 3) in BALB/c mice, first cross-species screen; assay type: in vivo
# Method: as §1
Sequence,"Fold enrichment over AAV9 in the brain of Mice (C57Bl/6) (brain [1]; RNA NGS, brain of C57Bl/6 mice)","Fold enrichment over AAV9 in the brain of NHPs ([2]; RNA NGS, brain of NHPs)","Fold enrichment over AAV9 in the spinal cord of NHPs ([2]; RNA NGS, spinal cord of NHPs)","Fold enrichment over AAV9 in the brain of Mice (BALB/c) (brain [3]; RNA NGS, brain of BALB/c mice)","Fold enrichment over AAV9 in the brain of Mice (C57Bl/6) (brain [1]; RNA from brain of C57Bl/6 mice, NGS)","Fold enrichment over AAV9 in the brain of NHPs ([2]; RNA from brain of NHPs, NGS)","Fold enrichment over AAV9 in the spinal cord of NHPs ([2]; RNA from spinal cord of NHPs, NGS)","Fold enrichment over AAV9 in the brain of Mice (BALB/c) (brain [3]; RNA from brain of BALB/c mice, NGS)"
GLGYPGSSGQNQQT,0.929 fold,1.763 fold,7.090 fold,0.577 fold,–,–,–,–
GLHGMTLSGQNQQT,–,–,–,–,0.470 fold,1.226 fold,3.552 fold,0.338 fold
GLLAGKSSGQNQQT,0.999 fold,1.491 fold,2.981 fold,0.946 fold,–,–,–,–
GLNHFGASGQNQQT,0.774 fold,3.802 fold,3.188 fold,0.579 fold,–,–,–,–
GLRLSTPSGQNQQT,0.804 fold,1.498 fold,4.334 fold,0.522 fold,–,–,–,–
GLSAEKSSGQNQQT,0.629 fold,1.047 fold,7.203 fold,0.303 fold,–,–,–,–
GLSNPMPSGQNQQT,1.190 fold,2.280 fold,6.033 fold,0.829 fold,–,–,–,–
GLSWPSTSGQNQQT,0.910 fold,2.238 fold,0.000 fold,0.610 fold,–,–,–,–
GMDHSRPSGQNQQT,0.918 fold,1.627 fold,3.976 fold,0.648 fold,–,–,–,–
GMGRHSASGQNQQT,0.470 fold,1.417 fold,6.500 fold,0.389 fold,–,–,–,–
GMRMEYQSGQNQQT,0.644 fold,1.729 fold,3.695 fold,0.632 fold,–,–,–,–
GMRTYHLSGQNQQT,2.033 fold,9.241 fold,1.939 fold,1.586 fold,–,–,–,–
GMSAHMSSGQNQQT,1.310 fold,2.456 fold,5.255 fold,0.947 fold,–,–,–,–
GMTSHSVSGQNQQT,0.220 fold,1.850 fold,2.732 fold,0.154 fold,–,–,–,–
GMYEYSQSGQNQQT,1.410 fold,1.438 fold,0.000 fold,0.448 fold,–,–,–,–
GNGFSSASGQNQQT,0.240 fold,2.493 fold,0.772 fold,0.182 fold,–,–,–,–
GNGHSMRPNQNQQT,0.693 fold,1.560 fold,2.341 fold,0.376 fold,–,–,–,–
GNGLYAVSGQNQQT,0.322 fold,2.611 fold,9.148 fold,0.213 fold,–,–,–,–
GNGQNQQHSILHGT,0.777 fold,1.435 fold,0.000 fold,0.415 fold,–,–,–,–
